Data reported in PMC11215771 (Journal of Medicinal Chemistry, 2024).
Several values for one entry are separate records, joined by “and”; a condition that tells them apart may be missing. Identical values can stand only once.

What was measured:
[1] = target: T1, wild-type hBACE1 in CHO-K1 cells (Homo sapiens, UniProt P56817); assay: Single molecule TIRF microscopy and bleaching step analysis in CHO-K1 cells; type: cell-based; conditions: 200 nM probe, fixed CHO-K1, TIRF, after rolling background subtraction
T1 construct: expressed in transfected cells; host or cells: CHO-K1
Procedure: Due to the high photostability and quantum yield of the Alexa dyes, the C3-compounds are potential tools for single molecule fluorescence microscopy of BACE1. […] CHO-K1 cells were transfected with wild-type BACE1. […] The samples were then recorded using total internal reflection fluorescence (TIRF) microscopy. […] Prior to analysis, ImageJ rolling background subtraction was applied[45] (Figure 6A, right panel). […] Single particles were identified and time traces of fluorescence intensity were extracted using GMimPro[46] (Figure 6B). The time traces were then subjected to a bleaching-step analysis with quickPBSA[47] (Figure 6B). […] The msfGFP was reported previously to display a fluorescence probability of about 50%, defined as combined probability of fluorescence, detection in the specific imaging system and identification in the analysis of a BACE1 molecule.[48] […] Here, the best fits indicated also a fluorescence probability of about 60%, but with a considerably lower fit error compared to dimers only (Figure 6D, blue traces).
The panel in the middle depicts typical single molecule complexes 48 h after transfection with 50 ng wild type BACE1. […] The insets highlight single fluorescence spots at higher magnification. […] (B) Single fluorescence spots were located and fluorescence intensities over time were extracted (see methods). […]

[2] = target: T2, hBACE1 fused to EGFP or mCherry in HEK293T cells (Homo sapiens, UniProt P56817); assay: Staining of transfected HEK293T cells, confocal imaging: BACE1; type: cell-based; conditions: living HEK293T, preincubation with 2 μM C3
T2 construct: expressed in transfected cells; host or cells: HEK293T
Procedure: (§1) Next, we explored the performance of the new Alexa-C3 compounds in living cells. Because of the rather hydrophilic properties, we exclusively targeted the cell membrane. To prevent intracellular accumulation, we first performed stainings at 4 °C arresting ATP-dependent endocytosis. […] All of the constructs were tagged at the C-terminus with either EGFP or mCherry to visualize subcellular expression. […] With these experiments, we want to exclude that a lack of staining is caused by an impaired accessibility of the protein by Alexa-C3 compounds. […] We then tested samples with BACE1 expression after fixation of the cells with paraformaldehyde (PFA).
(§2) (D) All conjugates were also probed on cells fixed with 4% paraformaldehyde (PFA) for 15 min prior to staining. […] Scale bars represent 5 μm (A–D) and 20 μm (E). […] Samples were excited at 488, 561, and 633 nm, respectively.
(§3) HEK293T cells (ATCC accession number CRL-11268) were maintained in Dulbecco's modified Eagle's medium (Sigma-Aldrich D6046) with 1g/L glucose, supplemented with 10% FCS (Merck) and 1% penicillin/streptomycin (PAA). CHO-K1 cells (ATCC #CCL-61) were maintained in modified phenol red free RPMI-1640 medium (Sigma-Aldrich, R7509), supplemented with 2 mM L-glutamine (Sigma-Aldrich, G7513), and 10% FCS (Merck). Cells were cultured at 37 °C in a 5% CO2 atmosphere. The following plasmids were used for transfection with the amount of DNA indicated (per 35 mm Petri dish): hBACE1 (NM_012104.4), 50 ng for single molecule recordings, 200 ng otherwise; hBACE1 fused to EGFP or mCherry, 75 ng; hBACE1 D289N fused to EGFP or mCherry, 75 ng; hBACE1 D289N, 200–400 ng; hBACE2 (NM_012105.3) fused to EGFP, 75 ng; hCathepsinD (HsCD00438327), Harvard PlasmID, 75 ng. Transfection was performed 24 h after plating using jetPEI (Polyplus) according to the manufacturer’s protocol.
For labeling, we plated HEK293T cells onto sterile 18 mm 1.5H borosilicate coverslips (VWR), coated with poly-D-lysine (Sigma). […] In addition, some cells were also fixed with 4% PFA or permeabilized with HBS + 50 μg/mL of Saponin for 15 min prior to staining as stated in the figure legend. After staining, live cells were washed with HBS twice. Confocal imaging was conducted at room temperature in HBS using the 63× objective and the pinhole set to 1 AU. Confocal imaging was performed 24 h after transfection.

[3] = target: recombinant human BACE1 protein (amino acids 1–457, extracellular domain) (Homo sapiens, UniProt P56817); assay: Fluorescence correlation spectroscopy (FCS) with BACE1 ECD in solution
[4] = Fluorescence spectroscopy, sensitivity to BSA and Expi293F cells
Procedure: Emission and excitation spectra of all compounds were determined at a concentration of 33 nM in phosphate buffered saline (PBS) using an infinite 200pro (Tecan) with a resolution of 2 nm. […] For sensitivity assessment, we used PBS, PBS + BSA (0.05%), and Expi293F cells in fluorobrite (2 × 10^6 cells/mL).

[5] = target: T3, recombinant BACE1 extracellular domain (Homo sapiens, UniProt P56817); assay: FRET-based BACE1 inhibition (BACE1-activity FRET) assay; type: biochemical
T3 construct: purchased Thermo Fisher Scientific P2985
Procedure: In addition, we performed a fluorescence resonance energy transfer (FRET)-based BACE1 inhibition assay using the recombinant BACE1 extracellular domain and a BACE1 substrate coupled to a donor fluorophore, which is unquenched […] to the activity of BACE1. […] (Figure 1F).
Protease activity was determined using a FRET-based assay with recombinant BACE1 protein (Thermo Fisher Scientific; P2985). BACE1 inhibition was determined in end-points assays according to the manufacturer’s protocol except using a reduced volume of 12 μL in 384-well plates (Greiner, 788896). […] Fluorescence intensities were quantified with an infinite 200pro reader (Tecan) using top-reading mode. Data points were approximated using a logistic fit to determine half-inhibitory concentrations (pIC50).

[6] = FCS of free Alexa-C3 in HBS in the absence of BACE1; conditions: 100 nM in HBS, pH 5, no BACE1, mean ± SD
[7] = target: T4, hBACE1 D289N (proteolytic inactive mutant) in HEK293T cells (Homo sapiens, UniProt P56817, D289N); assay: Staining of transfected HEK293T cells, confocal imaging: BACE1 D289N; type: cell-based
T4 construct: expressed in transfected cells; host or cells: HEK293T
Procedure: as §1, §2, §3
For labeling, we plated HEK293T cells onto sterile 18 mm 1.5H borosilicate coverslips (VWR), coated with poly-D-lysine (Sigma). […]

[8] = target: BACE-1 (mouse Protein, recombinant) (Mus musculus, UniProt P56818); assay: Nanotemper (Monolith NT.115) binding analysis; conditions: for binding of free acid dyes to recombinant BACE1: 0.1 nM dye, BACE1 0.3–5000 nM
Procedure: For binding analysis, the Monolith NT.115 (Nanotemper) was used. BACE-1 (mouse Protein, recombinant, life technologies, 50002-M08H-250, LCL10JA2204)) was dissolved in 50 mM HEPES/100 mM NaCl, pH 5 to a concentration of 20 μM. […] Samples were loaded on standard capillaries (Nanotemper, MO-K022) and measured in triplicate at 22 °C, using 1%/60% LED power for Alexa488/Alexa568 and 10% MST power. Fluorescence was plotted against protein concentrations.

BACE1 = conditions: cited from earlier work
[9] = BACE1 concentration 0.305 (unit not given; 0.3–5000 nM), triplicate
[10] = BACE1 concentration 0.61, triplicate
[11] = BACE1 concentration 1.221, triplicate
[12] = BACE1 concentration 2.441, triplicate
[13] = BACE1 concentration 4.883, triplicate
[14] = BACE1 concentration 9.766, triplicate
[15] = BACE1 concentration 19.531, triplicate
[16] = BACE1 concentration 39.062, triplicate
[17] = BACE1 concentration 78.125, triplicate
[18] = BACE1 concentration 156.25, triplicate
[19] = BACE1 concentration 312.5, triplicate
[20] = BACE1 concentration 625, triplicate
[21] = BACE1 concentration 1250, triplicate
[22] = BACE1 concentration 2500, triplicate
[23] = BACE1 concentration 5000, triplicate

BACE-1 (mouse Protein, recombinant), sequence (P56818 46-457 limits assumed): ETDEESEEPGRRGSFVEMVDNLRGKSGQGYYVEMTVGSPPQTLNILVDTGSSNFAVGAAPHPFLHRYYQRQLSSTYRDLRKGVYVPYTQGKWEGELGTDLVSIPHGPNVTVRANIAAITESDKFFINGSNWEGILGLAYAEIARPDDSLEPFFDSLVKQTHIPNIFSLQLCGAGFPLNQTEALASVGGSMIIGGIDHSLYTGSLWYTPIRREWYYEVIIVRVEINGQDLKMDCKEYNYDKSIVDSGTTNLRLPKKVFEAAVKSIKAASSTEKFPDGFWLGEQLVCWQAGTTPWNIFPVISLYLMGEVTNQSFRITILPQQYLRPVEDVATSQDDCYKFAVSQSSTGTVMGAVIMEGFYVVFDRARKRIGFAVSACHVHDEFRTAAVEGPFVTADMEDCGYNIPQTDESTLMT
T3 sequence (P56817 46-457 limits assumed): as the sequence (P56818 46-457 limits assumed) above, with S6P, I162V, I165L, T180S, A182V, V340I, A393L counted along it
recombinant human BACE1 protein (amino acids 1–457, extracellular domain), sequence (P56817 22-457): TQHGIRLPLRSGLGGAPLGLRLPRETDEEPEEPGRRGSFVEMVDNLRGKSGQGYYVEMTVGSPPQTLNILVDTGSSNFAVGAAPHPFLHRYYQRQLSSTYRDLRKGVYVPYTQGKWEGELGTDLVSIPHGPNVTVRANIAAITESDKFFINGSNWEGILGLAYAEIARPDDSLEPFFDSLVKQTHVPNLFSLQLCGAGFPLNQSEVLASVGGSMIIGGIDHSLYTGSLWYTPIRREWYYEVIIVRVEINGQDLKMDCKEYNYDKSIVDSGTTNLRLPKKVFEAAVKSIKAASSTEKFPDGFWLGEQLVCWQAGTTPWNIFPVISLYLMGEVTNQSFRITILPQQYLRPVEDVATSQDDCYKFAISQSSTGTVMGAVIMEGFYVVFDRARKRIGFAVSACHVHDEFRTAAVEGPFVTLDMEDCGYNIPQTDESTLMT
T4 sequence (P56817 46-501 D289N): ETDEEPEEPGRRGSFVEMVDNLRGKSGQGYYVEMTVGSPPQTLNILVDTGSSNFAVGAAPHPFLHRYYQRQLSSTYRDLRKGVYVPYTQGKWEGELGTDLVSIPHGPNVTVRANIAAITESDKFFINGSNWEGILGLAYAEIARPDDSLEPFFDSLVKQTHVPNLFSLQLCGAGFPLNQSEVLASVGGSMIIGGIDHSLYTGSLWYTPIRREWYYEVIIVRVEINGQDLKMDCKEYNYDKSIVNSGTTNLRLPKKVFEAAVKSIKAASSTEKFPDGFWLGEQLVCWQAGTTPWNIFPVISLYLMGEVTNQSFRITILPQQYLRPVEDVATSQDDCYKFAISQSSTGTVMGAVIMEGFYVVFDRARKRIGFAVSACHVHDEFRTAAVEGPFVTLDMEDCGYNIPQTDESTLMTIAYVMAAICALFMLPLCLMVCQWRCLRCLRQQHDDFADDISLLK
T1 sequence (P56817 46-501): as the sequence (P56817 46-501 D289N) above, with N244D counted along it
T2 sequence (P56817 46-501): as the sequence (P56817 46-501 D289N) above, with N244D counted along it

| Structure (SMILES) | binding of free acid dyes to recombinant BACE1 [8] | fluorescence reading, single replicates [8, 9] | fluorescence reading, single replicates [8, 10] | fluorescence reading, single replicates [8, 11] | fluorescence reading, single replicates [8, 12] | fluorescence reading, single replicates [8, 13] | fluorescence reading, single replicates [8, 14] | fluorescence reading, single replicates [8, 15] | fluorescence reading, single replicates [8, 16] | fluorescence reading, single replicates [8, 17] | fluorescence reading, single replicates [8, 18] | fluorescence reading, single replicates [8, 19] | fluorescence reading, single replicates [8, 20] | fluorescence reading, single replicates [8, 21] | fluorescence reading, single replicates [8, 22] | fluorescence reading, single replicates [8, 23] | other results |
| --- | --- | --- | --- | --- | --- | --- | --- | --- | --- | --- | --- | --- | --- | --- | --- | --- | --- |
| C[C@@H](NC(=O)c1cc(C(=O)N[C@@H](Cc2ccccc2)[C@H](O)CNC2CC2)cc(N(C)S(=O)(=O)CCCNC(=O)c2ccc(C(=O)O)c(C3=c4cc5c(cc4Oc4cc6c(cc43)C(CS(=O)(=O)O)=CC(C)(C)N6)=NC(C)(C)C=C5CS(=O)(=O)O)c2)c1)c1ccccc1 |  |  |  |  |  |  |  |  |  |  |  |  |  |  |  |  | signal-to-background ratio [1]: 5.9; staining of BACE1 after preincubation with unconjugated C3 [2]: no appreciable fluorescence; EC50 [3]: 45.7 nM; diffusion time constant of the second (BACE1-bound, slow) population ([3]; 100 nM probe with BACE1 ECD, pH 5, mean ± SEM, n = 3 preparations): 300 ± 20 μs; increase of fluorescent output in PBS supplemented with BSA ([4]; PBS + BSA (0.05%) vs PBS alone): +228%; increase of fluorescent output in presence of Expi293F cells ([4]; mock Expi293F cells in fluorobrite vs PBS alone): +302%; increase of potency of the pIC50 in a cell-free assay vs parent C3 ([5]; compared with unconjugated C3): 10 fold; IC50 ([5]; logistic fit, n = 3 for each compound, read-out: pIC50 (negative logarithm of the half-inhibitory concentration) (converted)): 2.45 nM; diffusion time constant of free probe [6]: 49 ± 2 μs; staining of BACE1 D289N [7]: no appreciable fluorescence |
| N=c1ccc2c(-c3cc(C(=O)O)ccc3C(=O)O)c3ccc(N)c(S(=O)(=O)O)c3oc-2c1S(=O)(=O)O [Alexa488] | did not observe any indication for affinity | 996.43 and 995.816 and 995.716 | 995.873 and 995.729 and 996.039 | 995.788 and 996.299 and 996.353 | 996.08 and 995.975 and 995.829 | 996.289 and 995.771 and 996.152 | 995.856 and 996.198 and 996.218 | 996.164 and 995.908 and 996.132 | 996.17 and 996.327 and 995.657 | 996.076 and 996.3 and 995.686 | 996.777 and 995.969 and 996.167 | 996.159 and 995.85 and 996.173 | 995.972 and 996.54 and 995.887 | 996.02 and 995.911 and 996.501 | 996.211 and 996.223 and 996.163 | 996.477 and 996.486 and 996.65 |  |
| CC1(C)C=C(CS(=O)(=O)O)c2cc3c(cc2=N1)Oc1cc2c(cc1C=3c1cc(C(=O)O)ccc1C(=O)O)C(CS(=O)(=O)O)=CC(C)(C)N2 [Alexa568] | did not observe any indication for affinity | 1000.167 and 1000.199 and 1000.049 | 1000.123 and 1000.132 and 1000.01 | 1000.102 and 1000.025 and 1000.071 | 1000.271 and 1000.043 and 1000.008 | 1000.035 and 1000.075 and 1000.095 | 999.978 and 999.965 and 1000.148 | 1000.105 and 1000.065 and 999.949 | 1000.023 and 999.969 and 1000.096 | 1000.136 and 1000.189 and 1000.122 | 1000.014 and 1000.053 and 1000.126 | 999.991 and 999.997 and 999.948 | 999.898 and 999.877 and 999.931 | 999.758 and 999.742 and 999.781 | 999.645 and 999.707 and 999.65 | 999.562 and 999.587 and 999.529 |  |
| C[C@@H](NC(=O)c1cc(C(=O)N[C@@H](Cc2ccccc2)[C@H](O)CNC2CC2)cc(N(C)S(C)(=O)=O)c1)c1ccccc1 [C3] |  |  |  |  |  |  |  |  |  |  |  |  |  |  |  |  | IC50 (BACE1): nanomolar range |
